Converted amounts (≈) assume the structure as drawn.
Assays:
Test in all cases: microbe, parasite or virus in culture
Format in all cases: cell-based
[1] = tested on: Burkholderia pseudomallei (BP; Gram-negative); conditions: read-out: MIC BP
[2] = tested on: Francisella tularensis (FT; Gram-negative); conditions: read-out: MIC FT
[3] = tested on: Yersinia pestis (YP; Gram-negative); conditions: read-out: MIC YP
[4] = tested on: Bacillus anthracis (BA; Gram-positive); conditions: read-out: MIC BA
[5] = tested on: Burkholderia mallei (BM; Gram-negative); conditions: read-out: MIC BM
[6] = tested on: Brucella abortus (BAB; Gram-negative); conditions: read-out: MIC BAB
[7] = tested on: Mycobacteruim tuberculosis H37Rv (H37Rv); conditions: Mycobacterium tuberculosis, read-out: MIC against Tubercle bacillus

| Structure (SMILES) | MIC [1] [µg/mL] | MIC [2] [µg/mL] | MIC [3] [µg/mL] | MIC [4] [µg/mL] | MIC [5] [µg/mL] | MIC [6] [µg/mL] | MIC [7] [µg/mL] |
| --- | --- | --- | --- | --- | --- | --- | --- |
| CNCCOc1c2[nH]c3ccc(F)cc3c2cc2c1[nH]c1ccc(F)cc12 | 16 (≈ 43.8 µM) | 0.5 (≈ 1.37 µM) | 8 (≈ 21.9 µM) | 1 (≈ 2.74 µM) | 4 (≈ 10.9 µM) | 0.5 (≈ 1.37 µM) | – |
| N[C@H]1CCN(CCCOc2c3[nH]c4ccc(Cl)cc4c3cc3c2[nH]c2ccc(Cl)cc23)C1 | > 8 | 0.5 (≈ 1.07 µM) | 2 (≈ 4.28 µM) | 0.5 (≈ 1.07 µM) | > 8 | 0.25 (≈ 0.535 µM) | – |
| C[N+](C)(C)CCOc1c2[nH]c3ccc(F)cc3c2cc2c1[nH]c1ccc(F)cc12.[I-] | 8 | 1 | > 8 | 0.5 | 8 | 2 | – |
| Nc1nnn(CCCOc2c3[nH]c4ccc(Cl)cc4c3cc3c2[nH]c2ccc(Cl)cc23)n1 | > 8 | 1 (≈ 2.14 µM) | > 8 | 0.5 (≈ 1.07 µM) | > 8 | 1 (≈ 2.14 µM) | – |
| Nc1nnnn1CCCOc1c2[nH]c3ccc(Cl)cc3c2cc2c1[nH]c1ccc(Cl)cc12 | > 8 | 1 (≈ 2.14 µM) | > 8 | 0.5 (≈ 1.07 µM) | > 8 | 0.5 (≈ 1.07 µM) | – |
| Nc1nc(N)n(CCCOc2c3[nH]c4ccc(Cl)cc4c3cc3c2[nH]c2ccc(Cl)cc23)n1 | > 8 | 1 (≈ 2.08 µM) | 8 (≈ 16.7 µM) | 0.5 to 1 (≈ 1.04 to 2.08 µM) | > 8 | 1 (≈ 2.08 µM) | – |
| Clc1ccc2[nH]c3c(OC4CCNC4)c4[nH]c5ccc(Cl)cc5c4cc3c2c1 (centres unmarked) | 4 (≈ 9.75 µM) | 0.25 to 1 (≈ 0.609 to 2.44 µM) | 1 (≈ 2.44 µM) | 0.5 to 1 (≈ 1.22 to 2.44 µM) | 2 (≈ 4.87 µM) | 0.25 (≈ 0.609 µM) | – |
| Clc1ccc2[nH]c3c(OCCCc4nnn[nH]4)c4[nH]c5ccc(Cl)cc5c4cc3c2c1 | > 8 | 1 (≈ 2.22 µM) | > 8 | 0.5 (≈ 1.11 µM) | > 8 | 1 (≈ 2.22 µM) | – |
| Nc1nnc(N)n1CCCOc1c2[nH]c3ccc(Cl)cc3c2cc2c1[nH]c1ccc(Cl)cc12 | > 8 | 1 (≈ 2.08 µM) | 4 (≈ 8.33 µM) | 1 (≈ 2.08 µM) | > 8 | 1 (≈ 2.08 µM) | – |
| OC1CCN(CCOc2c3[nH]c4ccc(F)cc4c3cc3c2[nH]c2ccc(F)cc23)CC1 | > 8 | 0.5 (≈ 1.15 µM) | 4 (≈ 9.19 µM) | 0.5 (≈ 1.15 µM) | 8 (≈ 18.4 µM) | 1 (≈ 2.3 µM) | – |
| CN(C)CCOc1c2[nH]c3cc(F)ccc3c2cc2c1[nH]c1cc(F)ccc12 | > 8 | 0.5 (≈ 1.32 µM) | > 8 | 1 (≈ 2.64 µM) | > 8 | 0.5 (≈ 1.32 µM) | – |
| CCOC(=O)c1ccc2[nH]c3c(OCCN)c4[nH]c5ccc(C(=O)OCC)cc5c4cc3c2c1 | > 8 | 1 (≈ 2.18 µM) | > 8 | 2 (≈ 4.35 µM) | > 8 | 1 (≈ 2.18 µM) | – |
| Fc1ccc2[nH]c3c(OC4CCNCC4)c4[nH]c5ccc(F)cc5c4cc3c2c1 | 8 (≈ 20.4 µM) | ≤ 0.25 | 8 (≈ 20.4 µM) | ≤ 0.25 | 4 (≈ 10.2 µM) | ≤ 0.25 | – |
| Clc1ccc2[nH]c3c(OCC4CCNCC4)c4[nH]c5ccc(Cl)cc5c4cc3c2c1 | > 8 | 0.5 (≈ 1.14 µM) | 2 (≈ 4.56 µM) | 0.5 (≈ 1.14 µM) | 8 (≈ 18.2 µM) | ≤ 0.25 | – |
| CC/N=C(/NCCCOc1c2[nH]c3ccc(F)cc3c2cc2c1[nH]c1ccc(F)cc12)NCCCN(C)C | 8 (≈ 15.4 µM) | ≤ 0.25 | 4 (≈ 7.68 µM) | ≤ 0.25 | 4 (≈ 7.68 µM) | 0.5 (≈ 0.96 µM) | – |
| Clc1ccc2[nH]c3c(OCC4CCCN4)c4[nH]c5ccc(Cl)cc5c4cc3c2c1 (centres unmarked) | 8 (≈ 18.9 µM) | 0.5 (≈ 1.18 µM) | 1 (≈ 2.36 µM) | 1 (≈ 2.36 µM) | 4 (≈ 9.43 µM) | 0.5 (≈ 1.18 µM) | – |
| C/N=C(\NC)NCCCOc1c2[nH]c3ccc(Cl)cc3c2cc2c1[nH]c1ccc(Cl)cc12 | 4 (≈ 8.54 µM) | 1 (≈ 2.13 µM) | 1 (≈ 2.13 µM) | 0.5 (≈ 1.07 µM) | 4 (≈ 8.54 µM) | 0.5 (≈ 1.07 µM) | – |
| COc1c2[nH]c3ccc(F)cc3c2cc2c1[nH]c1ccc(F)cc12 [drawing 194] | > 16 | 0.5 (≈ 1.55 µM) | > 16 | 1 (≈ 3.1 µM) | > 16 | 1 (≈ 3.1 µM) | – |

| Structure (SMILES) | MIC [1] [µg/mL] | MIC [2] [µg/mL] | MIC [3] [µg/mL] | MIC [4] [µg/mL] | MIC [5] [µg/mL] | MIC [6] [µg/mL] | MIC [7] [µg/mL] |
| --- | --- | --- | --- | --- | --- | --- | --- |
| CN(C)CCOc1c2[nH]c3ccc(F)cc3c2cc2c1[nH]c1ccc(F)cc12 [drawing 195] | 8 (≈ 21.1 µM) | 0.25 (≈ 0.659 µM) | 8 (≈ 21.1 µM) | 0.5 (≈ 1.32 µM) | 4 (≈ 10.5 µM) | 0.5 (≈ 1.32 µM) | – |
| CN(C)CC#Cc1c2[nH]c3ccc(F)cc3c2cc2c1[nH]c1ccc(F)cc12 [drawing 210] | > 8 | 0.25 (≈ 0.67 µM) | 2 (≈ 5.36 µM) | 0.5 (≈ 1.34 µM) | 8 (≈ 21.4 µM) | 0.25 (≈ 0.67 µM) | – |
| N=C(N)NCCCOc1c2[nH]c3ccc(Cl)cc3c2cc2c1[nH]c1ccc(Cl)cc12 [drawing 217] | 2 (≈ 4.54 µM) | 0.25 (≈ 0.568 µM) | 1 (≈ 2.27 µM) | 0.25 (≈ 0.568 µM) | 1 (≈ 2.27 µM) | 0.25 (≈ 0.568 µM) | – |
| OC1CCN(CCCOc2c3[nH]c4ccc(Cl)cc4c3cc3c2[nH]c2ccc(Cl)cc23)CC1 [drawing 229] | > 8 | 0.25 (≈ 0.518 µM) | 2 (≈ 4.15 µM) | 0.25 (≈ 0.518 µM) | 8 (≈ 16.6 µM) | 0.25 (≈ 0.518 µM) | – |
| Fc1ccc2[nH]c3c(OCCCn4cncn4)c4[nH]c5ccc(F)cc5c4cc3c2c1 [drawing 231] | > 8 | 1 (≈ 2.4 µM) | > 8 | 0.5 (≈ 1.2 µM) | > 8 | 1 (≈ 2.4 µM) | – |
| N=C(N)NCCCOc1c2[nH]c3ccc(F)cc3c2cc2c1[nH]c1ccc(F)cc12 [drawing 232] | 4 (≈ 9.82 µM) | 1 (≈ 2.45 µM) | 8 (≈ 19.6 µM) | 0.5 (≈ 1.23 µM) | 2 (≈ 4.91 µM) | 0.25 (≈ 0.614 µM) | – |
| Fc1ccc2[nH]c3c(OCCCNC4=NCCN4)c4[nH]c5ccc(F)cc5c4cc3c2c1 [drawing 234] | > 8 | 2 (≈ 4.61 µM) | 8 (≈ 18.5 µM) | 1 (≈ 2.31 µM) | 8 (≈ 18.5 µM) | 2 (≈ 4.61 µM) | – |
| Fc1ccc2[nH]c3c(O[C@@H]4CCNC4)c4[nH]c5ccc(F)cc5c4cc3c2c1 [drawing 253] | 4 (≈ 10.6 µM) | ≤ 0.25 | 1 (≈ 2.65 µM) | < 0.25 | 2 (≈ 5.3 µM) | < 0.25 | – |
| Fc1ccc2[nH]c3c(O[C@H]4CCNC4)c4[nH]c5ccc(F)cc5c4cc3c2c1 [drawing 254] | 4 (≈ 10.6 µM) | 0.25 (≈ 0.662 µM) | 1 (≈ 2.65 µM) | 0.25 (≈ 0.662 µM) | 2 (≈ 5.3 µM) | < 0.25 | – |
| COc1c2[nH]c3ccc(F)cc3c2cc2c1[nH]c1ccc(F)cc12 [drawing 271] | – | – | – | – | – | – | > 10 |
| CN(C)CCOc1c2[nH]c3ccc(F)cc3c2cc2c1[nH]c1ccc(F)cc12 [drawing 272] | – | – | – | – | – | – | 5 (≈ 13.2 µM) |
| CN(C)CC#Cc1c2[nH]c3ccc(F)cc3c2cc2c1[nH]c1ccc(F)cc12 [drawing 273] | – | – | – | – | – | – | 10 (≈ 26.8 µM) |
| N=C(N)NCCCOc1c2[nH]c3ccc(Cl)cc3c2cc2c1[nH]c1ccc(Cl)cc12 [drawing 274] | – | – | – | – | – | – | 10 (≈ 22.7 µM) |
| OC1CCN(CCCOc2c3[nH]c4ccc(Cl)cc4c3cc3c2[nH]c2ccc(Cl)cc23)CC1 [drawing 275] | – | – | – | – | – | – | 10 (≈ 20.7 µM) |
| Fc1ccc2[nH]c3c(OCCCn4cncn4)c4[nH]c5ccc(F)cc5c4cc3c2c1 [drawing 276] | – | – | – | – | – | – | > 10 |
| N=C(N)NCCCOc1c2[nH]c3ccc(F)cc3c2cc2c1[nH]c1ccc(F)cc12 [drawing 277] | – | – | – | – | – | – | 10 (≈ 24.5 µM) |
| Fc1ccc2[nH]c3c(OCCCNC4=NCCN4)c4[nH]c5ccc(F)cc5c4cc3c2c1 [drawing 278] | – | – | – | – | – | – | 10 (≈ 23.1 µM) |
